According to patent US10047345B2, “Culturing of mesenchymal stem cells with FGF4 and nicotinamide” (Gamida-Cell Ltd., priority 2012, dated 2018):

How the values were obtained:
[1] = system: umbilical cord-derived CD133+ hematopoietic stem cells; test: Differentiation and proliferation of ex-vivo cultured hematopoietic stem cells (FACS surface markers); type: cell-based
Procedure: Umbilical cord-derived hematopoietic stem cells were isolated using CD133 microbeads and CliniMACS® separator (Miltenyi, Inc. Auburn, Calif.), and cultured for 3 weeks in MEMα supplemented with 50 ng/ml TPO, IL6, SCF, Flt3, fetal bovine serum, ±2.5 or 5 mM nicotinamide, and/or 10, 50 or 200 ng/ml FGF4. After 3 weeks in culture the cells were stained for surface markers (CD38, CD133, CD33, CD19) and the cell populations determined by FACS analysis (see below). Results are expressed as percentage of total population assayed.
At different time points the cells were detached with 0.25% trypsin-EDTA. The cells were washed with a PBS solution containing 1% BSA, and stained (at 4° C. for 30 min) with either fluorescein isothiocyanate (FITC) or phycoerythrin (PE)-conjugated antibodies: 105 PE, 105 FITC (Serotec, Raleigh, N.C.), 45 FITC, 14 FITC, HLA-DR FITC, 106 PE, 31 PE (BD, Franklin Lakes N.J.), 34 PE (Dako, Glostrup, Denmark), 73 PE, HLA class1 PE, 49b PE (Pharmingen, San Diego, Calif.), 29 PE, 44 PE, 54 FITC, 59 PE, 90 PE (BioLegend, San Diego, Calif.). CD133—(AC141) PE (Miltenyi, Auburn, Calif.), CD38 FITC (Dako, Glostrup, Denmark), CD19 FITC (BD Biosciences, Franklin Lakes N.J.), CD33 FITC (BD Bioscience, Franklin Lakes N.J.).
The cells were then washed in the above buffer and analyzed using a FACScalibur® flow cytometer (Becton Dickinson, Franklin Lakes N.J.). The cells were passed at a rate of up to 1000 cells/second, using a 488 nm argon laser beam as the light source for excitation. Emission of 10000 cells was measured using logarithmic amplification, and analyzed using the CellQuest software (Becton Dickinson). Cells stained with FITC- and PE-conjugated isotype control antibodies were used to determine background fluorescence.
Umbilical cord-derived CD133+ hematopoietic stem cells were isolated and cultured for 3 weeks in medium supplemented with early-acting growth factors and fetal bovine serum, nicotinamide and/or FGF4. After 3 weeks in culture the cells were stained for surface markers (CD38, CD133, CD19) and the cell populations determined by FACS analysis. Cell proliferation was assessed by counting total cells at three weeks.

[2] = system: mesenchymal stem cells; test: CFU-F assay; type: cell-based, human; settings: 5 mM nicotinamide
Procedure: Cultured MSCs were seeded in 6-well plates at density of 50-100 cells/cm^2 and maintained with DMEM and 10% FBS. After 14 days the cells were fixed using 10% cold Formalin (Sigma) and stained with Harris Hematoxylin (Sigma). Clones (cluster of more than 50 cells with evident epicenter) are stained blue-purple and counted using microscope.

[3] = system: mesenchymal stem cells; test: In vitro wound healing assay; type: cell-based, human; settings: passage 3, 4 days post wound formation
Procedure: Wound was performed in MSCs cultures at ˜70% confluence using 200 μl or 1000 μl tip. Four days later the cells were fixated using 10% cold Formalin (Sigma) and stained with Harris Hematoxylin (Sigma). The in-vitro wound healing process was evaluated using microscope.

[4] = system: bone marrow-derived mesenchymal stem cells; test: Senescence evaluation assay (beta-galactosidase staining); type: cell-based, human; settings: 5 passages, 5 mM NAM, X-Gal staining
Procedure: Cultured MSCs were stained using the Senescence beta-Galactosidase Staining Kit (Cell Signaling). The cells are fixed and stained for detection of beta-Galactosidase activity at pH 6 using X-Gal and incubation overnight in 37° C. in dry incubator.

[5] = system: adipose tissue derived mesenchymal stem cells; test: Expansion and phenotype of adipose tissue derived MSCs with nicotinamide; type: cell-based, human
Procedure: Cell number was measured using Cedex Automated Cell Counter (Innovatis). The cells were diluted 1:2 in Trypan Blue (Sigma) and cell number was measured automatically under microscope.

[6] = system: mesenchymal stem cells; test: Expansion of mesenchymal stem cells with growth factors with and without nicotinamide (cumulative cell count); type: cell-based, human; settings: NAM 5 mM, FGF4 50 ng/ml
Procedure: Bone marrow derived and adipose tissue derived mesenchymal cells were isolated based on their plastic adherence potential in expansion medium containing: High glucose DMEM and 10% Fetal Bovine Serum (FBS, Hyclone, Logan, Utah, USA) supplemented with 0.05 mg/ml Gentamicin (Sigma) and 2 mM L-glutamine (Biological Industries, Israel). Cells were allowed to adhere for 3-4 days and non-adherent cells were washed out with medium changes. The medium was further exchanged with fresh medium every 3-4 days.
Once adherent cells reached approximately 80-90% confluency, they were detached with 0.25% trypsin-EDTA (Sigma), washed twice in DMEM and 10% Fetal Bovine Serum, with centrifugation, 400 g, 5 minutes, and replated at a 1:2 to 1:1000 dilution under the same culture conditions.
Cell number was measured using Cedex Automated Cell Counter (Innovatis). The cells were diluted 1:2 in Trypan Blue (Sigma) and cell number was measured automatically under microscope. […]
Mesenchymal stem cells were selected and cultured in the presence of particular growth factors (basic fibroblast growth factor—bFGF, heparin binding epidermal growth factor—HB-EGF, fibroblast growth factor 4—FGF-4 and platelet derived growth factor, homodimer, subunit B, PDGF-BB) in the presence and absence of nicotinamide for three or four passages and the number and size of the cells was calculated. […]

[7] = system: mesenchymal stem cells; test: Surface expression of VCAM1/CD106 and CD54 by FACS; type: cell-based, human; settings: versus MSCs grown without nicotinamide
Procedure: Mesenchymal stem cells were isolated using plastic adherence method, as described above and cultured for several passages with fetal bovine serum, ±NAM. The cells were selected in the presence of NAM. At about 80% confluence, adherent cells were collected following trypsin treatment, counted, characterized and re-seeded at a concentration of 1×10^3 cells/cm^2. Following Trypsin treatment the cells were analyzed for CD 106 expression in FACS using anti-human CD 106 PE antibodies. Following Trypsin treatment the cells were analyzed for CD54 expression in FACS using anti-human CD54 antibodies.

SMILES: NC(=O)c1cccnc1 [nicotinamide, Nicotinamide]
- degree of differentiation of hematopoietic progenitor cells (CD38 and CD133-expressing fraction) ([1]; 3 weeks culture, nicotinamide 2.5 or 5 mM, FGF4 10 to 200 ng/ml): decreases significantly
- fraction of undifferentiated early progenitors (CD38-CD133+) ([1]; 3 weeks, FIG. 35): significantly greater fraction
- differentiation (CD38+ cells) ([1]; 3 weeks, FIG. 36): significant inhibition of differentiation
- myeloid lineage differentiation (CD33+ cells) ([1]; 3 weeks, FIG. 37): significant inhibition
- lymphoid lineage differentiation (CD19+ cells) ([1]; 3 weeks, FIG. 38): striking inhibition
- abundance of committed myeloid or lymphoid cells (CD33, CD19) ([1]; three week cultures): consistently reduced the committed cell fraction
- cumulative CFU-F count [2]: increases the cumulative CFU-F count
- wound closure by MSCs [3]: higher ability to perform wound closure
- amount of senescent cells [4]: reduced
- differentiation state (surface marker composition) after expansion in nicotinamide ([5]; at least six passages): without induction of differentiation
- adipose derived mesenchymal stem cell expansion in culture ([5]; nicotinamide added from passage 3): substantially improved
- effect on the ability of FGF4 to increase proliferation of mesenchymal stem cells [6]: potentiating effect
- CD54 expression [7]: express less CD54
- VCAM1/CD106 expression [7]: express more VCAM1/CD106
